Measured values from PubChem BioAssay (NCI).
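Step 1: Grow cells in 96-well plates. Step 2: Expose to compound for 48 hours at 5 concentrations. Step 3: Interpolate endpoints linearly; if unreached, use highest concentration. TGI marks complete inhibition of growth.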

Experiments:
Experiment in all cases: growth of human tumour cells (NCI), 48 h
A549 NSCLC = test system: A549 NSCLC
LOX IMVI melanoma = test system: LOX IMVI melanoma
K-562 leukemia = test system: K-562 leukemia
RXF 393 renal = test system: RXF 393 renal
SF-295 CNS = test system: SF-295 CNS
UO-31 renal = test system: UO-31 renal
OVCAR-4 ovarian = test system: OVCAR-4 ovarian
SNB-19 CNS = test system: SNB-19 CNS
EKVX NSCLC = test system: EKVX NSCLC
HCT-116 colon = test system: HCT-116 colon
NCI/ADR-RES ovarian = test system: NCI/ADR-RES ovarian
DU-145 prostate = test system: DU-145 prostate
TK-10 renal = test system: TK-10 renal
SW-620 colon = test system: SW-620 colon
U251 CNS = test system: U251 CNS
NCI-H522 lung = test system: NCI-H522 lung
OVCAR-8 ovarian = test system: OVCAR-8 ovarian
NCI-H460 lung = test system: NCI-H460 lung
ACHN renal = test system: ACHN renal
A498 renal = test system: A498 renal
HT29 colon = test system: HT29 colon
SK-OV-3 ovarian = test system: SK-OV-3 ovarian
HOP-92 NSCLC = test system: HOP-92 NSCLC
MCF7 breast = test system: MCF7 breast
NCI-H23 lung = test system: NCI-H23 lung
COLO 205 colon = test system: COLO 205 colon
HS 578T breast = test system: HS 578T breast
MALME-3M melanoma = test system: MALME-3M melanoma
IGROV1 ovarian = test system: IGROV1 ovarian
UACC-257 melanoma = test system: UACC-257 melanoma
M14 melanoma = test system: M14 melanoma
SK-MEL-28 melanoma = test system: SK-MEL-28 melanoma
SF-268 CNS = test system: SF-268 CNS
SR leukemia = test system: SR leukemia
MDA-MB-435 = test system: MDA-MB-435
HL-60(TB) leukemia = test system: HL-60(TB) leukemia
BT-549 breast = test system: BT-549 breast
SK-MEL-2 melanoma = test system: SK-MEL-2 melanoma
MDA-MB-231 breast = test system: MDA-MB-231 breast
OVCAR-3 ovarian = test system: OVCAR-3 ovarian
T-47D breast = test system: T-47D breast
UACC-62 melanoma = test system: UACC-62 melanoma
CAKI-1 renal = test system: CAKI-1 renal
PC-3 prostate = test system: PC-3 prostate
SK-MEL-5 melanoma = test system: SK-MEL-5 melanoma
NCI-H226 lung = test system: NCI-H226 lung
HCT-15 colon = test system: HCT-15 colon
SF-539 CNS = test system: SF-539 CNS
KM12 colon = test system: KM12 colon
SN12C renal = test system: SN12C renal
MOLT-4 leukemia = test system: MOLT-4 leukemia
SNB-75 CNS = test system: SNB-75 CNS
786-0 renal = test system: 786-0 renal
MDA-N = test system: MDA-N
OVCAR-5 ovarian = test system: OVCAR-5 ovarian
CCRF-CEM leukemia = test system: CCRF-CEM leukemia
RPMI-8226 leukemia = test system: RPMI-8226 leukemia
HCC-2998 colon = test system: HCC-2998 colon
HOP-62 NSCLC = test system: HOP-62 NSCLC

`COC(=O)Cc1c(/C=C/C(C)(C)n2cnc(CCN3C(=O)CCC3=O)c2)[nH]c2ccccc12` was tested, and the TGI (A549 NSCLC) was over 100 µM, the TGI (LOX IMVI melanoma) was over 100 µM and the TGI (K-562 leukemia) was over 100 µM. It also gave a TGI (RXF 393 renal) of over 100 µM, a TGI (SF-295 CNS) of over 100 µM and a TGI (UO-31 renal) of over 100 µM. For the same compound, the TGI (OVCAR-4 ovarian) was over 100 µM, the TGI (SNB-19 CNS) was over 100 µM and the TGI (EKVX NSCLC) was over 100 µM. The TGI (HCT-116 colon) was over 100 µM, the TGI (NCI/ADR-RES ovarian) was over 100 µM and the TGI (DU-145 prostate) was over 100 µM. The TGI (TK-10 renal) was over 100 µM, the TGI (SW-620 colon) was over 100 µM and the TGI (U251 CNS) was over 100 µM. For the same compound, the TGI (NCI-H522 lung) was over 100 µM, the TGI (OVCAR-8 ovarian) was over 100 µM and the TGI (NCI-H460 lung) was over 100 µM. The TGI (ACHN renal) was over 100 µM, the TGI (A498 renal) was over 100 µM and the TGI (HT29 colon) was over 100 µM. For the same compound, the TGI (SK-OV-3 ovarian) was over 100 µM, the TGI (HOP-92 NSCLC) was over 100 µM and the TGI (MCF7 breast) was over 100 µM. For the same compound, the TGI (NCI-H23 lung) was over 100 µM, the TGI (COLO 205 colon) was over 100 µM and the TGI (HS 578T breast) was 89.3 µM. The TGI (MALME-3M melanoma) was 97.8 µM, the TGI (IGROV1 ovarian) was over 100 µM and the TGI (UACC-257 melanoma) was over 100 µM. For the same compound, the TGI (M14 melanoma) was over 100 µM, the TGI (SK-MEL-28 melanoma) was over 100 µM and the TGI (SF-268 CNS) was over 100 µM. The TGI (SR leukemia) was over 100 µM, the TGI (MDA-MB-435) was over 100 µM and the TGI (HL-60(TB) leukemia) was over 100 µM. It also gave a TGI (BT-549 breast) of over 100 µM, a TGI (SK-MEL-2 melanoma) of over 100 µM and a TGI (MDA-MB-231 breast) of over 100 µM. For the same compound, the TGI (OVCAR-3 ovarian) was over 100 µM, the TGI (T-47D breast) was 60.1 µM and the TGI (UACC-62 melanoma) was over 100 µM. For the same compound, the TGI (CAKI-1 renal) was over 100 µM, the TGI (PC-3 prostate) was over 100 µM and the TGI (SK-MEL-5 melanoma) was over 100 µM. The TGI (NCI-H226 lung) was over 100 µM, the TGI (HCT-15 colon) was over 100 µM and the TGI (SF-539 CNS) was over 100 µM. The TGI (KM12 colon) was over 100 µM, the TGI (SN12C renal) was over 100 µM and the TGI (MOLT-4 leukemia) was over 100 µM. For the same compound, the TGI (SNB-75 CNS) was over 100 µM, the TGI (786-0 renal) was over 100 µM and the TGI (MDA-N) was over 100 µM. For the same compound, the TGI (OVCAR-5 ovarian) was over 100 µM and the TGI (CCRF-CEM leukemia) was over 100 µM.
`CO/N=C(\C(=O)Nc1cncs1)c1csc(N)n1` showed a TGI (A549 NSCLC) of over 10 µM, a TGI (LOX IMVI melanoma) of over 10 µM and a TGI (K-562 leukemia) of over 10 µM. For the same compound, the TGI (SF-295 CNS) was over 10 µM, the TGI (UO-31 renal) was over 10 µM and the TGI (OVCAR-4 ovarian) was over 10 µM. For the same compound, the TGI (SNB-19 CNS) was over 10 µM, the TGI (RPMI-8226 leukemia) was over 10 µM and the TGI (EKVX NSCLC) was over 10 µM. The TGI (HCT-116 colon) was over 10 µM, the TGI (NCI/ADR-RES ovarian) was over 10 µM and the TGI (HCC-2998 colon) was over 10 µM. The TGI (DU-145 prostate) was over 10 µM, the TGI (TK-10 renal) was over 10 µM and the TGI (SW-620 colon) was over 10 µM. For the same compound, the TGI (U251 CNS) was over 10 µM, the TGI (NCI-H522 lung) was over 10 µM and the TGI (OVCAR-8 ovarian) was over 10 µM. For the same compound, the TGI (NCI-H460 lung) was over 10 µM, the TGI (ACHN renal) was over 10 µM and the TGI (A498 renal) was over 10 µM. For the same compound, the TGI (HT29 colon) was over 10 µM, the TGI (SK-OV-3 ovarian) was over 10 µM and the TGI (HOP-92 NSCLC) was over 10 µM. It also gave a TGI (MCF7 breast) of over 10 µM, a TGI (NCI-H23 lung) of over 10 µM and a TGI (COLO 205 colon) of over 10 µM. The TGI (HS 578T breast) was over 10 µM, the TGI (MALME-3M melanoma) was over 10 µM and the TGI (IGROV1 ovarian) was over 10 µM. The TGI (UACC-257 melanoma) was over 10 µM, the TGI (M14 melanoma) was over 10 µM and the TGI (HOP-62 NSCLC) was over 10 µM. The TGI (SK-MEL-28 melanoma) was over 10 µM, the TGI (SF-268 CNS) was over 10 µM and the TGI (SR leukemia) was over 10 µM. It also gave a TGI (MDA-MB-435) of over 10 µM, a TGI (BT-549 breast) of over 10 µM and a TGI (MDA-MB-231 breast) of over 10 µM. For the same compound, the TGI (OVCAR-3 ovarian) was over 10 µM, the TGI (T-47D breast) was over 10 µM and the TGI (UACC-62 melanoma) was over 10 µM. The TGI (CAKI-1 renal) was over 10 µM, the TGI (PC-3 prostate) was over 10 µM and the TGI (SK-MEL-5 melanoma) was over 10 µM. The TGI (HCT-15 colon) was over 10 µM, the TGI (SF-539 CNS) was over 10 µM and the TGI (KM12 colon) was over 10 µM. For the same compound, the TGI (SN12C renal) was over 10 µM, the TGI (MOLT-4 leukemia) was over 10 µM and the TGI (SNB-75 CNS) was over 10 µM. The TGI (786-0 renal) was over 10 µM, the TGI (MDA-N) was over 10 µM and the TGI (OVCAR-5 ovarian) was over 10 µM. The TGI (CCRF-CEM leukemia) was over 10 µM.
Work on `C/C(=N\Nc1nc2ccccc2s1)c1cnccn1` yielded a TGI (A549 NSCLC) of over 65.5 µM, a TGI (K-562 leukemia) of over 34.1 µM and a TGI (RXF 393 renal) of 40.7 µM. The TGI (SF-295 CNS) was over 23.5 µM, the TGI (UO-31 renal) was 23.6 µM and the TGI (OVCAR-4 ovarian) was over 100 µM. The TGI (SNB-19 CNS) was over 29.4 µM, the TGI (RPMI-8226 leukemia) was over 47.8 µM and the TGI (EKVX NSCLC) was 5 µM. The TGI (HCT-116 colon) was over 36.8 µM, the TGI (NCI/ADR-RES ovarian) was 4.88 µM and the TGI (HCC-2998 colon) was 31.9 µM. The TGI (DU-145 prostate) was over 100 µM, the TGI (SW-620 colon) was over 100 µM and the TGI (U251 CNS) was over 100 µM. It also gave a TGI (NCI-H522 lung) of 2.92 µM, a TGI (OVCAR-8 ovarian) of 5.86 µM and a TGI (NCI-H460 lung) of 15 µM. It also gave a TGI (ACHN renal) of 21.1 µM, a TGI (HT29 colon) of 2.81 µM and a TGI (SK-OV-3 ovarian) of over 27.7 µM. It also gave a TGI (HOP-92 NSCLC) of over 28.3 µM, a TGI (MCF7 breast) of 20.2 µM and a TGI (NCI-H23 lung) of 12.3 µM. It also gave a TGI (COLO 205 colon) of over 36.9 µM, a TGI (HS 578T breast) of 20 µM and a TGI (MALME-3M melanoma) of 43.7 µM. The TGI (IGROV1 ovarian) was 7.28 µM, the TGI (UACC-257 melanoma) was over 100 µM and the TGI (M14 melanoma) was 12.3 µM. The TGI (HOP-62 NSCLC) was over 54.8 µM, the TGI (SK-MEL-28 melanoma) was over 100 µM and the TGI (SF-268 CNS) was over 22.7 µM. For the same compound, the TGI (SR leukemia) was over 100 µM, the TGI (MDA-MB-435) was over 100 µM and the TGI (BT-549 breast) was over 100 µM. It also gave a TGI (SK-MEL-2 melanoma) of 49.9 µM, a TGI (MDA-MB-231 breast) of over 88.1 µM and a TGI (OVCAR-3 ovarian) of 17.4 µM. It also gave a TGI (T-47D breast) of over 100 µM, a TGI (UACC-62 melanoma) of over 60.6 µM and a TGI (CAKI-1 renal) of over 42.2 µM. It also gave a TGI (PC-3 prostate) of over 67.4 µM, a TGI (SK-MEL-5 melanoma) of 16 µM and a TGI (NCI-H226 lung) of 1.38 µM. It also gave a TGI (HCT-15 colon) of 18.2 µM, a TGI (SF-539 CNS) of 36.7 µM and a TGI (KM12 colon) of 15.2 µM. For the same compound, the TGI (SN12C renal) was over 80.8 µM, the TGI (SNB-75 CNS) was over 31.3 µM and the TGI (786-0 renal) was over 100 µM. It also gave a TGI (MDA-N) of over 100 µM, a TGI (OVCAR-5 ovarian) of over 77.7 µM and a TGI (CCRF-CEM leukemia) of over 100 µM.
